Data: patent publication US20230135552A1, “Compounds Useful In Inhibiting Ketohexokinase And Methods Of Making And Using The Same” (Inorbit Therapeutics AB, priority 2020, published 2023)

What was measured:
[1] = target: T1, Human Ketohexokinase (KHK-A) (Homo sapiens, UniProt P50053); test: Transcreener Kinase ADP2 FP assay, inhibition of human KHK-A; assay type: biochemical; details: recombinant human KHK-A 17.5 nM, 0.3 mM ATP, 7 mM fructose, 30 min pre-incubation, 60 min at 30° C.
T1 construct: Recombinant Human Ketohexokinase, Met1Val298, with C terminal 6His tag; 6His (C); purchased R&D Systems 8177-HK
T1 sequence (P50053 1-298 isoform P50053-2): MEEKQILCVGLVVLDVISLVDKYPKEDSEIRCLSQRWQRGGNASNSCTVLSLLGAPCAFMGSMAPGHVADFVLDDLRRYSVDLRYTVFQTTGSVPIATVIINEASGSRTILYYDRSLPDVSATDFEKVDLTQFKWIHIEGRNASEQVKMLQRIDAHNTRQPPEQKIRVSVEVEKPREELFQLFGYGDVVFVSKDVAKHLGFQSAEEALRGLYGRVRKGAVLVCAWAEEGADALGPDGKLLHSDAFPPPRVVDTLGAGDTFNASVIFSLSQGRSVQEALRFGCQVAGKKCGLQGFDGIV
Procedure: The following materials and methods were used, • Enzyme description and source: Recombinant Human Ketohexokinase, Met1Val298, with C terminal 6His tag (R&D Systems, 8177-HK). • Reagents: 200 μM ATP and 100 mM D-(−)-Fructose (Sigma F0127) as substrates. • Enzyme reaction buffer: 25 mM HEPES, 300 mM KCl, 10 mM MgCl2, 10 mM CaCl2, pH 7.0. • Control compound: KHK Inhibitor (Millipore-Sigma 420640) See Maryanoff, B. E., et al. 2011. ACS Med. Chem. Lett. 2, 538. • Assay: Transcreener Kinase ADP2 FP assay as described: https://www.bellbrooklabs.com/products/transcreener-hts-assays/kinase-assays/ • Assay parameters: 12-point dose response (n=2), 3-fold serial dilution, starting at 100 μM
KHK-A was added to the tested compounds (from 10 mM stock solution in 25 mM Tris pH 7.4), to a total volume 5 μl, and pre-incubated for 30 minutes at rt to ensure E*I complex formation. The reaction was then initiated by addition of an equal volume (5 μl) containing ATP and Fructose to give a resulting mix of 17.5 nM KHK-A, 0.3 mM ATP, 7 mM Fructose, 25 mM Tris (pH 7.4), 10 mM MgCl2, 10 mM CaCl2 and 50 mM KCl. Following 60 min at 30° C., reactions were quenched with 10 μl of stop/detect mix (40 mM HEPES (pH 7.5), 80 mM EDTA, 0,04% Brij-35, 8 nM ADP tracer and optimal concentration of ADP2 antibody), The plates were read on a PHERAstar PLUS after 1-hour room temperature equilibration. […]

KHK = target: T2, KHK (Rattus norvegicus, UniProt Q02974); test: Oral Fructose Tolerance Test (OFTT) in male Sprague Dawley rats; assay type: in vivo; details: 100 mg/kg oral; fructose bolus 2 g/kg 1 hour after compound; blood at 0.5, 1, 2 and 3 hours post challenge; FIG. 1
T2 construct: from tissue; host or cells: whole animal, male Sprague Dawley rats (in vivo)
T2 sequence (Q02974 1-298): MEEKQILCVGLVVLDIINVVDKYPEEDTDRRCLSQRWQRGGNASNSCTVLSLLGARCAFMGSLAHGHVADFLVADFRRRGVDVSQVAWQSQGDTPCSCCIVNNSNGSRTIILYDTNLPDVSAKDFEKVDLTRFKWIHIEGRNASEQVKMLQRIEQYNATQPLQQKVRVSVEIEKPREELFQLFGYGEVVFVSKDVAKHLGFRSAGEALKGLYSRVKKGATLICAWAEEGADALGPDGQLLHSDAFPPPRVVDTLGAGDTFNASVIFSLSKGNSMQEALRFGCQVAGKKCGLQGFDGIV
Procedure: FIG. 1: Graph showing the change in fructose levels from baseline in the control and Example 2 and 6 treated animals in the OFTT study.
The animals were fasted overnight, basal blood samples collected and a 100 mg/kg dose was orally administered of compounds example 2 or example 6. A fructose bolus (2 g/kg) was then given 1 hour after test compound administration and blood samples collected at 0.5, 1, 2 and 3 hours post fructose challenge. All the blood samples were centrifuged immediately and the separated plasma samples were stored at appropriate temperature for the fructose estimation. Plasma fructose concentration was measured by commercially available EnzyChrome fructose assay kit.

C[C@H]1CCN1c1nc(N2C[C@@H]3[C@H](C2)[C@H]3CS(=O)O)cc(C(F)(F)F)n1 [Example 2, sodium((1R,5S,6S)-3-(2-((S)-2-methylazetidin-1-yl)-6-(trifluoromethyl)pyrimidin-4-yl)-3-azabicyclo[3.1.0]hexan-6-yl)methanesulfinate]
IC50 [1]: 740 nM | change in fructose levels from baseline (plasma fructose) versus the control group (KHK): increase of fructose plasma levels

Cc1c(N2C[C@@H]3[C@H](C2)[C@H]3CS(=O)O)nc(N2CC[C@@H]2C)nc1C(F)(F)F [Example 6, sodium((1R,5S,6S)-3-(5-methyl-2-((S)-2-methylazetidin-1-yl)-6-(trifluoromethyl)pyrimidin-4-yl)-3-azabicyclo[3.1.0]hexan-6-yl)methanesulfinate]
IC50 [1]: 78 nM | change in fructose levels from baseline (plasma fructose) versus the control group (KHK): increase of fructose plasma levels
